Results on 26 compounds are retold here after patent US8791108B2, “Inhibitors of human immunodeficiency virus replication” (priority 2011, dated 2014).

Structures are written as SMILES. Where only a bound is given, the exact number is not on record here.

For the first assay, the system named is recombinant NL-Rluc virus. The experiment in a line: Inhibition of HIV replication (NL-RLuc luciferase reporter virus, MT-2 cells). The class given is cell-based. Particulars: Human immunodeficiency virus 1, MT2, 120 h, read-out: Activity. Background: A reporter such as luciferase makes a cellular process visible.
Consider `Cc1nc2cc(C(=O)NCCC(C)(C)C)nn2c(-c2ccc3c(c2Cl)NCCO3)c1[C@H](OC(C)(C)C)C(=O)O` [Example 144, (2S)-2-(tert-Butoxy)-2-(7-(5-chloro-3,4-dihydro-2H-benzo[b][1,4]oxazin-6-yl)-2-((3,3-dimethylbutyl)carbamoyl)-5-methylpyrazolo[1,5-a]pyrimidin-6-yl)acetic acid], for which the EC50 lay in the range of 0.1 to 1 µM.

For the compound `Cc1nc2cc(C(=O)NCCC3CCCCC3)nn2c(-c2cc(F)c3c(c2C)CCCO3)c1[C@H](OC(C)(C)C)C(=O)O` [Example 128, (2S)-2-(tert-butoxy)-2-(2-((2-cyclohexylethyl)carbamoyl)-7-(8-fluoro-5-methylchroman-6-yl)-5-methylpyrazolo[1,5-a]pyrimidin-6-yl)acetic acid], the EC50 was below 0.1 µM. On to `CCCCc1ccc(CNC(=O)c2cc3nc(C)c([C@H](OC(C)(C)C)C(=O)O)c(-c4cc(F)c5c(c4C)CCCO5)n3n2)cc1` [Example 31, (2S)-2-(tert-butoxy)-2-(2-((4-butylbenzyl)carbamoyl)-7-(8-fluoro-5-methylchroman-6-yl)-5-methylpyrazolo[1,5-a]pyrimidin-6-yl)acetic acid], for which the EC50 is below 0.1 µM. On the same count and under the same terms, the figure for `Cc1nc2cc(C(=O)NCc3ccccc3)nn2c(-c2cc(F)c3c(c2C)CCCO3)c1[C@H](OC(C)(C)C)C(=O)O` [Example 4, (2S)-2-(2-(Benzylcarbamoyl)-7-(8-fluoro-5-methylchroman-6-yl)-5-methylpyrazolo[1,5-a]pyrimidin-6-yl)-2-(tert-butoxy)acetic acid] is below 0.1 µM; for `Cc1nc2cc(C(=O)NCCC3CCCN3C)nn2c(-c2cc(F)c3c(c2C)CCCO3)c1[C@H](OC(C)(C)C)C(=O)O` (stereo partly drawn) [Example 74, (2S)-2-(tert-butoxy)-2-(7-(8-fluoro-5-methylchroman-6-yl)-5-methyl-2-((2-(1-methylpyrrolidin-2-yl)ethyl)carbamoyl)pyrazolo[1,5-a]pyrimidin-6-yl)acetic acid] it is above 1 µM.

For `Cc1ccc(NC(=O)c2cc3nc(C)c([C@H](OC(C)(C)C)C(=O)O)c(-c4cc(F)c5c(c4C)CCCO5)n3n2)cc1` [Example 15, (2S)-2-(tert-butoxy)-2-(7-(8-fluoro-5-methylchroman-6-yl)-5-methyl-2-(p-tolylcarbamoyl)pyrazolo[1,5-a]pyrimidin-6-yl)acetic acid], the EC50 is below 0.1 µM.

`Cc1ccccc1CNC(=O)c1cc2nc(C)c([C@H](OC(C)(C)C)C(=O)O)c(-c3cc(F)c4c(c3C)CCCO4)n2n1` [Example 7, (2S)-2-(tert-butoxy)-2-(7-(8-fluoro-5-methylchroman-6-yl)-5-methyl-2-((2-methylbenzyl)carbamoyl)pyrazolo[1,5-a]pyrimidin-6-yl)acetic acid]: the EC50 is below 0.1 µM. Turning to `Cc1nc2cc(C(=O)NCC3CCN(C(=O)C4CC4)CC3)nn2c(-c2cc(F)c3c(c2C)CCCO3)c1[C@H](OC(C)(C)C)C(=O)O` [Example 58, (2S)-2-(tert-butoxy)-2-(2-(((1-(cyclopropanecarbonyl)piperidin-4-yl)methyl)carbamoyl)-7-(8-fluoro-5-methylchroman-6-yl)-5-methylpyrazolo[1,5-a]pyrimidin-6-yl)acetic acid], the EC50 was above 1 µM. With `CCCCNC(=O)c1cc2nc(C)c([C@H](OC(C)(C)C)C(=O)O)c(-c3cc(F)c4c(c3C)CCCO4)n2n1` [Example 114, (2S)-2-(tert-butoxy)-2-(2-(butylcarbamoyl)-7-(8-fluoro-5-methylchroman-6-yl)-5-methylpyrazolo[1,5-a]pyrimidin-6-yl)acetic acid], the EC50 is below 0.1 µM. `Cc1nc2cc(C(=O)N3CCN(c4ccccc4)CC3)nn2c(-c2cc(F)c3c(c2C)CCCO3)c1[C@H](OC(C)(C)C)C(=O)O` [Example 93, (2S)-2-(tert-butoxy)-2-(7-(8-fluoro-5-methylchroman-6-yl)-5-methyl-2-(4-phenylpiperazine-1-carbonyl)pyrazolo[1,5-a]pyrimidin-6-yl)acetic acid]: the EC50 was below 0.1 µM. With `CCCCCc1ccccc1CNC(=O)c1cc2nc(C)c([C@H](OC(C)(C)C)C(=O)O)c(-c3ccc4c(c3Cl)NCCO4)n2n1` [Example 142, (2S)-2-(tert-Butoxy)-2-(7-(5-chloro-3,4-dihydro-2H-benzo[b][1,4]oxazin-6-yl)-5-methyl-2-((2-pentylbenzyl)carbamoyl)pyrazolo[1,5-a]pyrimidin-6-yl)acetic acid], the EC50 is below 0.1 µM. For the compound `Cc1nc2cc(C(=O)NCc3ccc(S(N)(=O)=O)cc3)nn2c(-c2cc(F)c3c(c2C)CCCO3)c1[C@H](OC(C)(C)C)C(=O)O` [Example 53, (2S)-2-(tert-butoxy)-2-(7-(8-fluoro-5-methylchroman-6-yl)-5-methyl-2-((4-sulfamoylbenzyl)carbamoyl)pyrazolo[1,5-a]pyrimidin-6-yl)acetic acid], the EC50 is above 1 µM. With `Cc1cccc(CNC(=O)c2cc3nc(C)c([C@H](OC(C)(C)C)C(=O)O)c(-c4cc(F)c5c(c4C)CCCO5)n3n2)c1` [Example 6], the EC50 is below 0.1 µM. Same read-out and setting: the figure for `Cc1nc2cc(C(=O)NCc3ccc(N(C)C)cc3)nn2c(-c2cc(F)c3c(c2C)CCCO3)c1[C@H](OC(C)(C)C)C(=O)O` [Example 52, (2S)-2-(tert-butoxy)-2-(2-((4-(dimethylamino)benzyl)carbamoyl)-7-(8-fluoro-5-methylchroman-6-yl)-5-methylpyrazolo[1,5-a]pyrimidin-6-yl)acetic acid] is below 0.1 µM; for `Cc1nc2cc(C(=O)NCc3ccc(OC(F)(F)F)cc3)nn2c(-c2cc(F)c3c(c2C)CCCO3)c1[C@H](OC(C)(C)C)C(=O)O` [Example 44, (2S)-2-(tert-butoxy)-2-(7-(8-fluoro-5-methylchroman-6-yl)-5-methyl-2-((4-(trifluoromethoxy)benzyl)carbamoyl)pyrazolo[1,5-a]pyrimidin-6-yl)acetic acid] it is below 0.1 µM; for `Cc1nc2cc(C(=O)NCCC(C)C)nn2c(-c2cc(F)c3c(c2C)CCCO3)c1[C@H](OC(C)(C)C)C(=O)O` [Example 49, (2S)-2-(tert-butoxy)-2-(7-(8-fluoro-5-methylchroman-6-yl)-2-(isopentylcarbamoyl)-5-methylpyrazolo[1,5-a]pyrimidin-6-yl)acetic acid] it is below 0.1 µM. Still for that read-out and setting: the figure for `Cc1nc2cc(C(=O)N3CCN(CCc4ccccc4)CC3)nn2c(-c2cc(F)c3c(c2C)CCCO3)c1[C@H](OC(C)(C)C)C(=O)O` [Example 90, (2S)-2-(tert-butoxy)-2-(7-(8-fluoro-5-methylchroman-6-yl)-5-methyl-2-(4-phenethylpiperazine-1-carbonyl)pyrazolo[1,5-a]pyrimidin-6-yl)acetic acid] is 0.1 to 1 µM. Still for that read-out and setting: the figure for `Cc1nc2cc(C(=O)N3CCN(c4cccc(Cl)c4)CC3)nn2c(-c2cc(F)c3c(c2C)CCCO3)c1[C@H](OC(C)(C)C)C(=O)O` [Example 80, (2S)-2-(tert-butoxy)-2-(2-(4-(3-chlorophenyl)piperazine-1-carbonyl)-7-(8-fluoro-5-methylchroman-6-yl)-5-methylpyrazolo[1,5-a]pyrimidin-6-yl)acetic acid] is below 0.1 µM; for `Cc1cccc(CN(C)C(=O)c2cc3nc(C)c([C@H](OC(C)(C)C)C(=O)O)c(-c4cc(F)c5c(c4C)CCCO5)n3n2)c1` [Example 20, (2S)-2-(tert-butoxy)-2-(7-(8-fluoro-5-methylchroman-6-yl)-5-methyl-2-(methyl(3-methylbenzyl)carbamoyl)pyrazolo[1,5-a]pyrimidin-6-yl)acetic acid] it is below 0.1 µM. On to `CCc1ccc(CN(C)C(=O)c2cc3nc(C)c([C@H](OC(C)(C)C)C(=O)O)c(-c4cc(F)c5c(c4C)CCCO5)n3n2)cc1` [Example 21, (2S)-2-(tert-butoxy)-2-(2-((4-ethylbenzyl)(methyl)carbamoyl)-7-(8-fluoro-5-methylchroman-6-yl)-5-methylpyrazolo[1,5-a]pyrimidin-6-yl)acetic acid], for which the EC50 was below 0.1 µM.

As to `CCN1CCN(C(=O)c2cc3nc(C)c([C@H](OC(C)(C)C)C(=O)O)c(-c4cc(F)c5c(c4C)CCCO5)n3n2)CC1` [Example 83, (2S)-2-(tert-butoxy)-2-(2-(4-ethylpiperazine-1-carbonyl)-7-(8-fluoro-5-methylchroman-6-yl)-5-methylpyrazolo[1,5-a]pyrimidin-6-yl)acetic acid], the EC50 was above 1 µM. On the same count and under the same terms, with `Cc1nc2cc(C(=O)NCC(C)(C)C)nn2c(-c2cc(F)c3c(c2C)CCCO3)c1[C@H](OC(C)(C)C)C(=O)O` [Example 127, (2S)-2-(tert-butoxy)-2-(7-(8-fluoro-5-methylchroman-6-yl)-5-methyl-2-(neopentylcarbamoyl)pyrazolo[1,5-a]pyrimidin-6-yl)acetic acid] the figure was 0.1 to 1 µM; with `Cc1nc2cc(C(=O)Nc3ccc(C4CCCCC4)cc3)nn2c(-c2cc(F)c3c(c2C)CCCO3)c1[C@H](OC(C)(C)C)C(=O)O` [Example 73, (2S)-2-(tert-butoxy)-2-(2-((4-cyclohexylphenyl)carbamoyl)-7-(8-fluoro-5-methylchroman-6-yl)-5-methylpyrazolo[1,5-a]pyrimidin-6-yl)acetic acid], below 0.1 µM; with `Cc1nc2cc(C(=O)NCc3ccco3)nn2c(-c2cc(F)c3c(c2C)CCCO3)c1[C@H](OC(C)(C)C)C(=O)O` [Example 38, (2S)-2-(tert-butoxy)-2-(7-(8-fluoro-5-methylchroman-6-yl)-2-((furan-2-ylmethyl)carbamoyl)-5-methylpyrazolo[1,5-a]pyrimidin-6-yl)acetic acid], 0.1 to 1 µM. The same measure, in the same setting: with `Cc1nc2cc(C(=O)NCCC(C)(C)C)nn2c(N2CCC(C)(C)CC2)c1[C@H](OC(C)(C)C)C(=O)O` [Example 152, (S)-2-(tert-Butoxy)-2-(2-((3,3-dimethylbutyl)carbamoyl)-7-(4,4-dimethylpiperidin-1-yl)-5-methylpyrazolo[1,5-a]pyrimidin-6-yl)acetic acid] the figure was below 0.1 µM; with `Cc1nc2cc(C(=O)NCc3cc(Cl)cc(Cl)c3)nn2c(-c2cc(F)c3c(c2C)CCCO3)c1[C@H](OC(C)(C)C)C(=O)O` [Example 118, (2S)-2-(tert-butoxy)-2-(2-((3,5-dichlorobenzyl)carbamoyl)-7-(8-fluoro-5-methylchroman-6-yl)-5-methylpyrazolo[1,5-a]pyrimidin-6-yl)acetic acid], below 0.1 µM.

Still in this assay, the particulars now being: Human immunodeficiency virus 1, MT2, 120 h, read-out: EC50 μM.
Take `Cc1nc2cc(C(=O)NCCC(C)(C)C)nn2c(-c2ccc3c(c2Cl)NCCO3)c1[C@H](OC(C)(C)C)C(=O)O` [Example 144, (2S)-2-(tert-Butoxy)-2-(7-(5-chloro-3,4-dihydro-2H-benzo[b][1,4]oxazin-6-yl)-2-((3,3-dimethylbutyl)carbamoyl)-5-methylpyrazolo[1,5-a]pyrimidin-6-yl)acetic acid]: the EC50 is 0.122 µM.

As to `Cc1nc2cc(C(=O)NCc3ccc(S(N)(=O)=O)cc3)nn2c(-c2cc(F)c3c(c2C)CCCO3)c1[C@H](OC(C)(C)C)C(=O)O` [Example 53, (2S)-2-(tert-butoxy)-2-(7-(8-fluoro-5-methylchroman-6-yl)-5-methyl-2-((4-sulfamoylbenzyl)carbamoyl)pyrazolo[1,5-a]pyrimidin-6-yl)acetic acid], the EC50 stood at 3.19 µM. With `Cc1nc2cc(C(=O)NCc3ccco3)nn2c(-c2cc(F)c3c(c2C)CCCO3)c1[C@H](OC(C)(C)C)C(=O)O` [Example 38, (2S)-2-(tert-butoxy)-2-(7-(8-fluoro-5-methylchroman-6-yl)-2-((furan-2-ylmethyl)carbamoyl)-5-methylpyrazolo[1,5-a]pyrimidin-6-yl)acetic acid], the EC50 turned out to be 0.167 µM.

Take `Cc1nc2cc(C(=O)NCCC(C)(C)C)nn2c(N2CCC(C)(C)CC2)c1[C@H](OC(C)(C)C)C(=O)O` [Example 152, (S)-2-(tert-Butoxy)-2-(2-((3,3-dimethylbutyl)carbamoyl)-7-(4,4-dimethylpiperidin-1-yl)-5-methylpyrazolo[1,5-a]pyrimidin-6-yl)acetic acid]: the EC50 was determined as 0.03 µM.
